# Measured values taken from publication PMC4627230, “Identification of TAX2 peptide as a new unpredicted anti-cancer agent” (Oncotarget, 2015).
# “Also recorded” adds a separate entry of the source.
# Columns and labels:
# [1] = system: immobilized TSP-1 (thrombospondin from human platelets); test: ELISA binding of biotin-labeled peptides to immobilized TSP-1; conditions: biotin-labeled peptide 10 μg/mL, 3 h, room temperature, 0.5% BSA; absorbance 450 nm; n = 3 in triplicate
# Method: Microtiter plates (Nunc, ThermoFisher Scientific, Courtaboeuf, France) were coated overnight at 4°C with 0.5 μg TSP-1 in sodium carbonate-bicarbonate (BupH) buffer (Thermo Fisher Scientific). Plates were washed with PBS 0.1% BSA (Sigma-Aldrich) and non-specific sites were saturated during 30 min using 1% (w/v) BSA in BupH buffer. Biotin-labeled peptide (10 μg/mL, determined after dose-response assay from 0.01 to 100 μg/mL) was added in buffer containing 0.5% (w/v) BSA and incubated for 3 h at room temperature. Non-labeled peptide (0.001 to 5 mg/mL) was used as selective competitor. Plates were washed with PBS containing 0.1% (w/v) BSA and treated for 30 min with mouse anti-biotin antibody. Bound antibody was quantified using the mouse IgG Elite Vectastain ABC kit (Vector Laboratories) followed by incubation with 1-Step Turbo TMB substrate as a chromogen (ThermoFisher Scientific). The reaction was stopped with 0.5 M H2SO4 and absorbance was read at 450 nm.
# [2] = system: TSP-1; test: Surface plasmon resonance; format: binding; conditions: data not shown
# [3] = system: TSP-1 binding to FGF-2; test: Co-immunoprecipitation TSP-1 with FGF-2; format: cell-based, human; conditions: HUVECs, 100 μM; conditioned media
# Method: (§1) Protein lysates prepared in ice-cold lysis buffer or conditioned media were subjected to immunoprecipitation assay using the Pierce Co-IP kit (Thermo Fisher Scientific) according to the manufacturer's protocol. 10 μg of antibody (anti CD47, anti-CD36, anti-FGF2, anti-VEGF, anti-β1 integrin and anti-LRP1 heavy chain) or non-specific IgGs were incubated with the delivered resin and covalently coupled. The antibody-coupled resin was incubated with whole HUVEC protein lysate overnight at 4°C under gentle agitation (no cross-linker was used to stabilize protein complexes before HUVEC lysis). Then the resin was washed and the protein complexes bound to the antibody were eluted. Immunoprecipitated protein complexes were solubilized under denaturing and reducing conditions, heated to 100°C for 5 min and analyzed by immunoblotting as described above. […]
# (§2) receptors. HUVECs were treated with TAX2 (100 μM) or scrambled peptide (Ctrl, 100 μM). FGF-2 and VEGF were immunoprecipitated from conditioned media using anti-FGF-2 (clone C-18) and anti-VEGF (clone C-1), respectively. β1 integrin and LRP-1 were immunoprecipitated from total protein lysates using anti-β1 integrin (clone BV7) and anti-LRP-1 heavy chain (clone 8G1), respectively. […] Histogram represents the quantification of relative ligand-bound TSP-1 under TAX2 treatment as compared to control. […]
# [4] = system: TSP-1 binding to β1 integrin; test: Co-immunoprecipitation TSP-1 with β1 integrin; format: cell-based, human; conditions: HUVECs, 100 μM; total protein lysates
# Method: as §1, §2
# [5] = system: tumor vascularization of B16F1 melanoma in C57BL/6 mice; test: B16F1 melanoma tumor angiography (μCT) and CD31 immunostaining; format: in vivo, mouse; conditions: 10 mg/kg i.p. days 3, 5, 7
# Method: (§3) For the subcutaneous melanoma tumor model, suspensions of B16F1 cells (2.5 × 10^5 cells in 100 μL RPMI-1640 medium) were subcutaneously injected into the left flank of different randomized series of syngeneic C57BL/6 mice (n = 8–10 per group), as previously described. Intraperitoneal administrations of peptide (10 mg/kg mouse weight) or controls (physiological serum 0.9% (w/v) NaCl or a scrambled peptide) were performed at days 3, 5 and 7. In human pancreatic carcinoma xenograft experiments, 3 × 10^6 MIA PaCa-2 cells/mouse were implanted subcutaneously into the left flank of BALB/C athymic nude mice, then TAX2 intraperitoneal treatments (10 mg/kg mouse weight) were performed 3 times a week during 4 weeks starting at day 10 after tumor cells inoculation. Tumor volume was determined according to v = 0.5 A × B^2, where A denotes the largest dimension of the tumor and B represents the smallest dimension. At days indicated, mice were sacrificed and tumors were surgically extracted and fixed in 4% paraformaldehyde for further morphologic studies and for magnetic resonance imaging, or frozen for immunohistochemistry. Mice were also weighed every 2–3 days and daily checked for any modification in their behavior. Loss of 15% body weight was an indication for euthanasia as well as severe tumor necrosis, as it was sometimes associated with skin ulceration that would result in loss of body fluid and/or infection.
# Histological analysis of formaldehyde-fixed and paraffin-embedded tumors were performed on hemalun, phloxin and saffron (HPS) stained 3 μm thick sections prepared using routine histological methods. To assess tumor-associated microvessel density (MVD), CD31 immunostaining was performed on 5 μm thick cryosections using biotin-labeled secondary antibody and streptavidin-HRP AEC detection system (Microm Microtech, Francheville, France), followed by hematein counter-coloration. Negative controls were done omitting the primary antibody. The necrotic part relative to total tumor surface for each tumor slice as well as MVD were quantified using ImageJ software.
# Animals were anesthetized by isoflurane (Forene, Abbott France, Rungis, France) inhalation (3% for induction and 1–1.5% for maintenance) and then after placed in a carbon fibers bed. CT images were acquired on a dedicated small animal μCT scanner (Skyscan 1076, Bruker, Kontich, Belgium) while continuously rotating the camera by 180° with the following parameters: 50 kV, 0.5 mm Al filter, 200 μA source current, 35 μm isotropic resolution, 180 ms exposure time, 4 projection images per 0.7° rotation step and a retrospective synchronization. The projections were reconstructed using a filtered backprojection algorithm using Skyscan software (NRecon, Skyscan). For tumor angiography analysis, an alkaline earth-based nanoparticulate contrast agent (Viscover ExiTron nano 12000, Miltenyi Biotec, Paris, France) was injected in the mouse tail vein. Mice were imaged during the next 30 min following injection, a period during which no reduction in contrast was observed. Analysis of reconstructed images and quantification of the vascular network were performed using Amira 5.4.3 software.
# [6] = system: C57BL/6 mice; test: Tolerability in melanoma-bearing mice (μCT of healthy organs, dissection); format: in vivo, mouse; conditions: 10 mg/kg i.p. days 3, 5, 7, dissections, data not shown
# Method: as §3, with “At days indicated, mice were sacrificed and tumors were surgically extracted and fixed in 4% paraformaldehyde for further morphologic studies and for magnetic resonance imaging, or frozen for immunohistochemistry. Mice were also weighed every 2–3 days and daily checked for any modification in their behavior. Loss of 15% body weight was an indication for euthanasia as well as severe tumor necrosis, as it was sometimes associated with skin ulceration that would result in loss of body fluid and/or infection.” left out
# Animals were anesthetized by isoflurane (Forene, Abbott France, Rungis, France) inhalation (3% for induction and 1–1.5% for maintenance) and then after placed in a carbon fibers bed. […] Analysis of reconstructed images and quantification of the vascular network were performed using Amira 5.4.3 software.
# [7] = system: tumor vasculature of MIA PaCa-2 xenograft in BALB/C nu/nu mice; test: MIA PaCa-2 xenograft vascularization (μCT, dissection); format: in vivo, human tumor xenograft in mouse; conditions: 10 mg/kg i.p. 3 times a week for 4 weeks
# Method: as §3
# Animals were anesthetized by isoflurane (Forene, Abbott France, Rungis, France) inhalation (3% for induction and 1–1.5% for maintenance) and then after placed in a carbon fibers bed. CT images were acquired on a dedicated small animal μCT scanner (Skyscan 1076, Bruker, Kontich, Belgium) while continuously rotating the camera by 180° with the following parameters: 50 kV, 0.5 mm Al filter, 200 μA source current, 35 μm isotropic resolution, 180 ms exposure time, 4 projection images per 0.7° rotation step and a retrospective synchronization. […] Analysis of reconstructed images and quantification of the vascular network were performed using Amira 5.4.3 software.
# [8] = system: lung metastasis of invasive B16F10 melanoma cells; test: Experimental lung metastasis; format: in vivo; conditions: data not shown
# [9] = μCT angiography, representative of n = 5
sequence,measurement,setting,value
"CEVSQLLKGDAC (disulfide) [TAX2, CD47-derived cyclic disulfide dodecapeptide …]",binding to immobilized TSP-1,[1],binds to immobilized TSP-1
same,binding to TSP-1 by surface plasmon resonance,[2],confirmed
same,TSP-1 binding to FGF-2,[3],does not affect
same,TSP-1 binding to β1 integrin,[4],does not affect
same,"tumor vasculature appearance in 3D reconstruction, day 14",[5],"highly anarchic and discontinuous, only at the tumor surface, surrounding a central hemorrhagic area"
same,blood vessel size (CD31),"[5]; tumor cryosections, n = 6",diminution in vessel size
same,diminution in intratumoral MVD (CD31),"[5]; tumor cryosections, n = 6",60%
same,"blood vessels within tumors, day 7",[5]; [9],undetectable
same,"central vascular network within tumors, day 14",[5]; [9],still lacking and a wide hemorrhagic area corresponding to the previously described necrotic zone was observed
same,"intratumoral vascularization, day 10",[5]; [9],restricted to tumor periphery
same,length and diameter of tumor blood vessels,[5]; μCT day 14,significantly decreased both the length and diameter of blood vessels
same,reduction in blood vessel mean volume,[5]; μCT day 14,2 fold
same,"thrombosis, hemorrhage or embolism in melanoma-bearing mice",[6],"neither μCT imaging of healthy organs nor mice dissections highlighted any sign of thrombosis, hemorrhage or embolism; also recorded: no signs of thrombosis, hemorrhage or embolism were observed in healthy organs"
same,"tumor vasculature in dissections, day 38",[7],decreased tumor vasculature
same,"tumor-associated vascular network in 3D reconstruction, day 38",[7],strongly inhibit tumor-associated vascular network
same,tumor vascularization until day 38,"[7]; μCT, representative of n = 5",striking alteration of tumor vascularization
same,lung metastasis formation,[8],did not increase metastasis formation
